Assay results: ChEMBL document CHEMBL1201862, “PubChem BioAssay data set” (2004)
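Dose response: 5 concentrations. Exposure: 48 h. Format: 96-well plates. Endpoint: linear interpolation; highest concentration if not reached. At the GI50, growth is halved.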 Active and inactive are the calls of the source. Rule as the data show it: active = GI50 up to about 1.1 µM and inactive = higher.

What was measured:
Assay in all cases: NCI tumour cell line growth inhibition, 48 h
Malme-3M = tested on: Malme-3M
COLO 205 = tested on: COLO 205
SF-539 = tested on: SF-539
SF-295 = tested on: SF-295
SNB-19 = tested on: SNB-19
EKVX = tested on: EKVX
ACHN = tested on: ACHN
U-251 = tested on: U-251
CCRF-CEM = tested on: CCRF-CEM
SF-268 = tested on: SF-268
SN12C = tested on: SN12C
OVCAR-3 = tested on: OVCAR-3
HCT-116 = tested on: HCT-116
OVCAR-4 = tested on: OVCAR-4
HL-60 = tested on: HL-60
RXF 393 = tested on: RXF 393
HOP-62 = tested on: HOP-62

Row | SMILES | GI50 (Malme-3M) | GI50 (COLO 205) | GI50 (SF-539) | GI50 (SF-295) | GI50 (SNB-19) | GI50 (EKVX) | GI50 (ACHN) | GI50 (U-251) | GI50 (CCRF-CEM) | GI50 (SF-268) | GI50 (SN12C) | GI50 (OVCAR-3) | GI50 (HCT-116) | GI50 (OVCAR-4) | GI50 (HL-60) | GI50 (RXF 393) | GI50 (HOP-62)
1 | C[n+]1c2ccccc2c(CNC(CS)C(=O)O)c2ccccc21 (stereo not given) | 37.8 µM (inactive) | 19.2 µM (inactive) | 18.4 µM (inactive) | 24.2 µM (inactive) | 32.7 µM (inactive) | 19 µM (inactive) | 27.2 µM (inactive) | 24.2 µM (inactive) | 24.4 µM (inactive) | 20.4 µM (inactive) | 30.5 µM (inactive) | 24.4 µM (inactive) | 17.5 µM (inactive) | 28.1 µM (inactive) | 17.3 µM (inactive) | 24.1 µM (inactive) | 15.5 µM (inactive)
2 | [C-]#[N+][C@@H]1C2[C@H](CC[C@@]1(C)O)C(=C)CC[C@@H]2[C@@]1(C)CC[C@H](Cl)C(C)(C)O1 (stereo not given in full) | 5.28 µM (inactive) | 3.2 µM (inactive) | 6.67 µM (inactive) | 12.1 µM (inactive) | 7.1 µM (inactive) | 7.14 µM (inactive) | 4.22 µM (inactive) | 8.87 µM (inactive) | 2.77 µM (inactive) | 11 µM (inactive) | 4.38 µM (inactive) | 1.31 µM (inactive) | 2.23 µM (inactive) | 3.24 µM (inactive) | 1.92 µM (inactive) | 14 µM (inactive) | –
3 | CC1CC(=O)Nc2ccccc2N1C(=O)CN1CCC(CCCCN(C)C)CC1 (stereo not given) | > 100 µM (inactive) | > 100 µM (inactive) | > 100 µM (inactive) | > 100 µM (inactive) | > 100 µM (inactive) | > 100 µM (inactive) | > 100 µM (inactive) | > 100 µM (inactive) | > 100 µM (inactive) | > 100 µM (inactive) | > 100 µM (inactive) | > 100 µM (inactive) | > 100 µM (inactive) | > 100 µM (inactive) | > 100 µM (inactive) | > 100 µM (inactive) | > 100 µM (inactive)
4 | CC1(C)C2CCC13CS(=O)(=O)N1O[C@]13C(=O)O2 (stereo not given in full) | > 100 µM (inactive) | > 100 µM (inactive) | > 100 µM (inactive) | > 100 µM (inactive) | > 100 µM (inactive) | > 100 µM (inactive) | > 100 µM (inactive) | > 100 µM (inactive) | – | > 100 µM (inactive) | > 100 µM (inactive) | > 100 µM (inactive) | > 100 µM (inactive) | > 100 µM (inactive) | > 100 µM (inactive) | – | > 100 µM (inactive)
5 | COC(=O)CCC(NC(=S)N/N=C(\C)c1cnccn1)C(=O)OC (stereo not given) | 54.1 µM (inactive) | 34.4 µM (inactive) | 62.5 µM (inactive) | 52.4 µM (inactive) | > 100 µM (inactive) | 40 µM (inactive) | 29.8 µM (inactive) | 52.4 µM (inactive) | 16.8 µM (inactive) | 35.4 µM (inactive) | 86.7 µM (inactive) | 34.5 µM (inactive) | 33.9 µM (inactive) | 56.2 µM (inactive) | 14.8 µM (inactive) | > 100 µM (inactive) | 36.2 µM (inactive)
6 | COc1ccc2nc3cc(Cl)ccc3c(NC(C)CCCN(CCCl)CCCl)c2c1 (stereo not given) | 1.85 µM (inactive) | 0.397 µM (active) | 0.55 µM (active) | 0.215 µM (active) | 0.74 µM (active) | 0.787 µM (active) | 0.161 µM (active) | 0.607 µM (active) | 0.0612 µM (active) | 0.273 µM (active) | 0.269 µM (active) | 0.853 µM (active) | 0.199 µM (active) | 0.849 µM (active) | 0.12 µM (active) | 1.04 µM (active) | 1.4 µM (inactive)
7 | COC(=O)C1(C)NCCc2c1[nH]c1ccccc21 (stereo not given) | > 100 µM (inactive) | > 100 µM (inactive) | > 100 µM (inactive) | > 100 µM (inactive) | > 100 µM (inactive) | > 100 µM (inactive) | – | > 100 µM (inactive) | > 100 µM (inactive) | > 100 µM (inactive) | > 100 µM (inactive) | > 100 µM (inactive) | > 100 µM (inactive) | > 100 µM (inactive) | > 10 µM (inactive) | > 100 µM (inactive) | > 100 µM (inactive)
8 | C[S+]=c1sc2ccccc2s1 | > 100 µM (inactive) | > 100 µM (inactive) | > 100 µM (inactive) | > 100 µM (inactive) | > 100 µM (inactive) | – | > 100 µM (inactive) | > 100 µM (inactive) | > 100 µM (inactive) | > 100 µM (inactive) | > 100 µM (inactive) | – | > 100 µM (inactive) | > 100 µM (inactive) | > 100 µM (inactive) | > 100 µM (inactive) | > 100 µM (inactive)
9 | CCc1ccccc1N1C(=O)C(=O)C(c2nc3ccccc3s2)C(=O)C1=O | > 100 µM (inactive) | – | > 100 µM (inactive) | 83 µM (inactive) | > 100 µM (inactive) | > 100 µM (inactive) | > 100 µM (inactive) | 36.1 µM (inactive) | 37.6 µM (inactive) | > 100 µM (inactive) | 63.4 µM (inactive) | 80.4 µM (inactive) | 48.3 µM (inactive) | 79.8 µM (inactive) | 40.3 µM (inactive) | > 100 µM (inactive) | > 100 µM (inactive)
10 | N#CC(C#N)=c1ccc(=C2N3CCCC3CN2C23CC4CC(CC(C4)C2)C3)cc1 (stereo not given) | > 100 µM (inactive) | > 100 µM (inactive) | > 100 µM (inactive) | > 100 µM (inactive) | 84.1 µM (inactive) | > 100 µM (inactive) | > 100 µM (inactive) | > 100 µM (inactive) | > 100 µM (inactive) | 55.8 µM (inactive) | > 100 µM (inactive) | > 100 µM (inactive) | > 100 µM (inactive) | – | > 100 µM (inactive) | > 100 µM (inactive) | 24.4 µM (inactive)
11 | C#CC1(O)CCC2C3CCc4cc(Oc5nc(F)nc(-c6c7ccccc7c7n6CCS7)n5)ccc4C3CC[C@@]21C (stereo not given in full) | 38.5 µM (inactive) | 29 µM (inactive) | 15.7 µM (inactive) | 15.6 µM (inactive) | 24.6 µM (inactive) | – | 29.6 µM (inactive) | 17.5 µM (inactive) | 11 µM (inactive) | 29 µM (inactive) | – | 17.9 µM (inactive) | 12.1 µM (inactive) | 15.3 µM (inactive) | 19.8 µM (inactive) | – | 17.9 µM (inactive)
12 | Cc1ccc(S(=O)(=O)N/N=C2\C(=O)C3CC2C(Cl)C3Cl)cc1 (stereo not given) | > 100 µM (inactive) | > 100 µM (inactive) | – | > 100 µM (inactive) | > 100 µM (inactive) | – | > 100 µM (inactive) | > 100 µM (inactive) | > 100 µM (inactive) | > 100 µM (inactive) | > 100 µM (inactive) | > 100 µM (inactive) | > 100 µM (inactive) | > 100 µM (inactive) | > 100 µM (inactive) | – | > 100 µM (inactive)
